# ChEMBL document CHEMBL1155515, “Discovery of novel selective norepinephrine reuptake inhibitors: 4-[3-aryl-2,2-dioxido-2,1,3-benzothiadiazol-1(3H)-yl]-1-(methylamino)butan-2-ols (WYE-103231)” (J Med Chem, 2010)
# Assays:
# Type in all cases: ADME, organism-based
# [1] = Tmax in male rat at 10 mg/kg, po; parameters: dose 10 mg/kg, route oral; details: in vivo
# [2] = AUC (0 to infinity) in intact female rat at 5 mg/kg, po; parameters: time infinity, dose 5 mg/kg, route oral; details: plasma
# [3] = Tmax in intact female rat at 5 mg/kg, po; parameters: dose 5 mg/kg, route oral; details: in vivo
# [4] = Cmax in male rat at 10 mg/kg, po; parameters: dose 10 mg/kg, route oral; details: in vivo
# [5] = AUC (0 to infinity) in intact female rat at 2 mg/kg, iv; parameters: time infinity, dose 2 mg/kg, route intravenous; details: plasma
# [6] = Tmax in ovariectomised female rat at 5 mg/kg, po; parameters: dose 5 mg/kg, route oral; details: in vivo
# [7] = Volume of distribution at steady state in ovariectomised female rat at 2 mg/kg, iv; parameters: dose 2 mg/kg, route intravenous; details: in vivo, read-out: Vdss
# [8] = Ratio of drug level from brain to plasma in ovariectomised female rat; details: read-out: BPR
# [9] = Cmax in intact female rat at 5 mg/kg, po; parameters: dose 5 mg/kg, route oral; details: in vivo
# [10] = AUC (0 to infinity) in ovariectomised female rat at 2 mg/kg, iv; parameters: time infinity, dose 2 mg/kg, route intravenous; details: plasma
# [11] = Volume of distribution at steady state in male rat at 2 mg/kg, iv; parameters: dose 2 mg/kg, route intravenous; details: in vivo, read-out: Vdss
# [12] = Oral bioavailability in male rat at 10 mg/kg; details: in vivo
# [13] = Cmax in ovariectomised female rat at 5 mg/kg, po; parameters: dose 5 mg/kg, route oral; details: in vivo
# [14] = AUC (0 to infinity) in male rat at 2 mg/kg, iv; parameters: time infinity, dose 2 mg/kg, route intravenous; details: plasma
# [15] = Volume of distribution at steady state in intact female rat at 2 mg/kg, iv; parameters: dose 2 mg/kg, route intravenous; details: in vivo, read-out: Vdss
# [16] = Oral bioavailability in intact female rat at 5 mg/kg; details: in vivo
# [17] = Oral bioavailability in ovariectomised female rat at 5 mg/kg; details: in vivo
# [18] = AUC (0 to infinity) in male rat at 10 mg/kg, po; parameters: time infinity, dose 10 mg/kg, route oral; details: plasma
# [19] = AUC (0 to infinity) in ovariectomised female rat at 5 mg/kg, po; parameters: dose 5 mg/kg, route oral, time infinity; details: plasma
structure (smiles),measurement,setting,value
CNC[C@@H](O)CCN1c2ccccc2N(c2ccccc2F)S1(=O)=O,Tmax,[1],1.38 h
same,AUC(0-inf),[2],959 ng·h/mL
same,Tmax,[3],0.56 h
same,Cmax,[4],154 ng/mL
same,AUC(0-inf),[5],929 ng·h/mL
same,Tmax,[6],1.63 h
same,Vd,[7],25.3 L/kg
same,Kp,[8],3.6
same,Cmax,[9],135 ng/mL
same,AUC(0-inf),[10],505 ng·h/mL
same,Vd,[11],36.3 L/kg
same,bioavailability,[12],100%
same,Cmax,[13],125 ng/mL
same,AUC(0-inf),[14],199 ng·h/mL
same,Vd,[15],11.3 L/kg
same,bioavailability,[16],41.3%
same,bioavailability,[17],95.2%
same,AUC(0-inf),[18],1040 ng·h/mL
same,AUC(0-inf),[19],1200 ng·h/mL
